Results as given in patent publication US10583115B2, “Modulators of 14-3-3 functionality and uses thereof” (University of South Australia, priority 2014, dated 2020).
“Also recorded” adds a separate entry of the source.

Assays:
Jurkat cells [1] = experiment: Jurkat apoptosis assays (TMRE, caspase 3, Annexin V, viability by flow cytometry); format: cell-based
Description: (§1) Jurkat cells were routinely set up in apoptosis assays at 2×10^5/ml in RPMI with 0.5% FBS. After treatment, cells were stained either with 200 nM TMRE, 5 μl/ml NucView™ (Biotium), or Annexin V-FITC (Roche) for 15 mins prior to analysis by flow cytometry. Forward- and side-scatter properties were used to exclude debris and a ‘viable’ gate corresponding to the intact, PI negative cell population was used for fluorescence analysis. For A549, cells at 90% confluency were treated with RB compounds for 48 hrs in DMEM with 0.5% FBS. After treatment, cells were released with trypsin and then stained with NucView™ prior to analysis by flow cytometry.

Jurkat cells [2] = experiment: Immunoblotting of signalling and apoptosis markers in Jurkat cells; format: cell-based; details: 7.5 μM, time course
Description: Jurkat cells were treated at 5×10^5/ml in RPMI with 0.5% FBS as detailed. Cells were harvested by centrifugation at 1500 g for 5 mins and washed with PBS prior to lysis in NP40 lysis buffer (10 mM Tris-HCl pH7.4, 137 mM NaCl, 10% glycerol, 1% NP40, protease inhibitor (Roche), 4 mM NaF, 2 mM Na-vanadate, 10 mM β-glycerophosphate, 1 mM Na-pyrophosphate, 1 mM Na-molybdate) for 30 minutes on ice with vortexing. The lysates were clarified at 13,000 rpm for 15 minutes at 4° C. and protein concentration determined using BCA assay (Pierce). 30-40 μg of lysate were run on to Criterion-XT 4-12% Bis-Tris gels (Bio-Rad), followed by transfer onto nitrocellulose. The filters were blocked for 30 minutes at room temperature in TNT buffer (10 mM Tris-HCl pH8, 150 mM NaCl, 0.05% Tween-20) containing blocking buffer (Roche), prior to incubation with antibodies over night. Antibodies used were from Cell Signalling; Phospho-p38 MAPK(#4571), Phospho-SAPK/JNK(81E11), Phospho-p44/42 MAP kinase (#9101), Phospho-AKT S473 (#9271), p44/42 MAP kinase (#9102), AKT (#9272), BID (#2002), caspase-3 (#9602), PARP (#9542), and Santa Cruz Biotechnology; pan 14-3-3 K19 (sc-629). Following antibody binding, filters were washed in TNT for 1 hr at room temperature, incubated with 1/12,500 anti-rabbit or anti-mouse HRP secondary antibody (Pierce) for 1 hr at room temperature and finally washed for 1 hr with TNT before incubation with Clarity western ECL reagent (Bio-Rad). Filters were exposed on a LAS 4000 imager. Blots were analysed using Multi-gauge/Colony software FUJI FILM).

A549 cells [3] = experiment: A549 cell viability by MTS assay; format: cell-based, human; details: 48 hrs treatment
Description: A549 cells (2500/well) were plated in 96 well trays in DMEM with 0.5% FBS and cultured at 37° C. with 5% CO2 overnight. The following day RB compounds were added and cells incubated for a further 48 hours prior to removal of the medium and replacement with MTS reagent diluted 1:6 in Dulbecco's PBS. The cells were incubated at 37° C. for a further 4 hours and the conversion of MTS to the coloured formazan compound determined by measurement of absorbance at 490 nm.

A549 cells [4] = experiment: A549 caspase-3 activation (NucView, flow cytometry); format: cell-based, human; details: 48 hrs treatment
Description: as §1

A549 cells [5] = experiment: A549 colony assay in soft agar; format: cell-based, human; details: 14 days
Description: A549 cells (7500) were plated in 0.33% low-melting point agarose in DMEM with 10% FBS with and without RB compounds over a 0.5% low-melting point agarose base. Cells were incubated at 37° C. with 5% CO2 for 14 days and then colonies were photographed and analysed using Image J.

[6] = Toxicity of daily intraperitoneal dosing in mice; format: in vivo, Balb/C nude mice
Description: Finally, we studied the effects of RB-012 in vivo. To assess any potential toxic effects, Balb/C nude mice were administered RB-012, delivered in saline, daily by intra-peritoneal injection at 5 mg/kg.

A549 xenograft = A549 xenograft study; format: in vivo, BALB/c nude mice
Description: All experimental procedures involving animals were conducted in accordance with the NHMRC Australian Code for the Care and Use of Animals for Scientific Purposes and with approval by the institutional animal ethics committee. BALB/c nude mice (Nu/Nu, female, 5-6 weeks old) were purchased from the Animal Resources Centre (Perth, Wash.) and maintained under pathogen-free conditions. A549 cells (5×106) in 100 μl PBS were injected subcutaneously into the flanks of the mice and the resulting tumour were measured using digital callipers. The tumour volume was calculated using the following formula: Volume=(larger diameter)×(small diameter)2/2. Once the tumours had reached 100 mm3, mice were divided into groups of 9 and each group administered either RB-012 in saline, FTY720 in saline or saline alone by intraperitoneal injection daily. Initially RB-12 and FTY720 were administered at 2 mg/kg for two days and then the dose was increased to 5 mg/kg for two weeks after which RB-012 was increased to 10 mg/kg but FTY720 maintained at 5 mg/kg. During this dosing regime tumours were monitored twice a week. Differences between samples were analysed using 2 way Anova and statistical significance was accepted at P<0.05.
To assess the effect of RB-012 on human lung cancer growth in vivo, A549 cells were implanted subcutaneously on the flanks of Balb/C nude mice and tumours allowed to develop until they had reached a volume of 100 mm^3. RB-012 or saline was then administered daily to assess the effect on tumour growth. Initially, to reduce the cramping and encourage tolerance, 2 mg/kg RB-012 was administered for two days and then the dose was increased to 5 mg/kg daily for two weeks. Tumour volume was monitored twice a week and after two weeks of treatment mice administered RB-012 had tumours that were 20% smaller than mice receiving saline. […] The tumours on the RB-012 treated mice continued to grow more slowly and after the third week were 30% smaller than those of saline-treated mice (P<0.05). […] Therefore we were unable to increase FTY720 dosing to match RB-012.

sphingosine kinases (SK) = experiment: Effect on sphingosine kinase (SK) activity; details: data not shown

With `CCCCCCCCc1ccc(CC[N+]2(C)CCCCC2)cc1` [RB-012] the “ED50 for apoptosis induction, in words” value (Jurkat cells [1]) was “low micromolar range”, the “Annexin V presentation” value (Jurkat cells [1]; 5 μM, 24 hours) was “Annexin V presentation” and the cell viability (Jurkat cells [1]; 5 μM, 24 hours) was “loss of viability”. The “apoptosis as determined by caspase-3 activation” value (Jurkat cells [1]; 5 μM, within 5 hours) was “readily able to activate apoptosis”, the “time at which BID cleavage is detected” value (Jurkat cells [2]) was 3 h and the “time at which PARP cleavage is detectable” value (Jurkat cells [2]) was 2 h. The “time at which clipping of 14-3-3 protein is detectable” value (Jurkat cells [2]) was 2 h, the “time to commitment to apoptosis” value (Jurkat cells [2]) was 2 to 3 h and the “cell viability / growth and survival (MTS), in words” value (A549 cells [3]) was “inhibited”. For the same compound, the IC50 (A549 cells [3]; Homo sapiens, A549) was 5.5 µM, the caspase-3 activation (A549 cells [4]) was “induce caspase activation; also recorded: greater potency” and the “colony formation in soft agar” value (A549 cells [5]) was “slightly greater potency”. For the same compound, the “time within which cramping after injection subsided” value ([6]; 5 mg/kg daily intra-peritoneal) was 10 to 20 min, the adverse effects ([6]; 5 mg/kg daily intra-peritoneal in saline, 28 days) was “no adverse effects were noted with the exception of minor cramping” and the body weight ([6]; 5 mg/kg daily intra-peritoneal, 28 days) was “unaltered”. For the same compound, the “steady state haemopoiesis (blood and bone marrow samples)” value ([6]; end of treatment period, data not shown) was “no changes were observed”, the “tolerability at 10 mg/kg” value (A549 xenograft; 10 mg/kg daily i.p.) was “well tolerated without adverse effects” and the “tumours smaller than in mice receiving saline” value (A549 xenograft; after two weeks, 2 mg/kg for two days, then 5 mg/kg daily i.p.) was 20%. The “growth of A549 xenograft, in words” value (A549 xenograft; daily i.p., 2 then 5 then 10 mg/kg) was “retarded” and the “effect on SK activity” value (sphingosine kinases (SK)) was “does not affect SK activity”.
